Measurements reported in patent publication US7192941B2, “Estradiol metabolites for the treatment of pulmonary hypertension” (priority 2003, dated 2007).

Experiments:
Format in all cases: in vivo, male Sprague Dawley rats
[1] = test system: proliferating cell nuclear antigen (PCNA); assay: Cell proliferation (PCNA immunostaining) in lungs, right ventricle and main pulmonary artery of monocrotaline-treated rats; details: vs MCT group, 10 μg/kg/hour, 21 days, p<0.001; for inhibition of proliferative response (PCNA staining) in the lungs: FIG. 6A; for inhibition of proliferative response (PCNA staining) in the right ventricle: FIG. 6B; for inhibition of proliferative response (PCNA staining) in the main pulmonary artery: FIG. 6C
Protocol: (§1) A total of twenty-seven, male Sprague Dawley rats (Charles River, Wilmington, Mass.) (378 +/−12 grams) were utilized in this experiment. Animals were housed in the University of Pittsburgh Medical Center animal care facility (temperature 22° C., light cycle 12 hours, relative humidity 55%). Animals were fed Pro Lab RHM 3000 rodent diet (PMI Nutrition, Inc, St Louis, Mo.) and were given water ad libitum. Institutional guidelines for animal welfare were followed, and the Animal Care and Use Committee approved experimental protocols.
(§2) Animals were randomly assigned to receive subcutaneously saline (1 ml/kg, n=6) or monocrotaline (Sigma, St Louis, Mo.) (MCT, 60 mg/kg subcutaneously) (n=21). Monocrotaline is an agent known to induce pulmonary hypertension. Six hours after the initial injection, control animals were implanted with osmotic minipumps (model 2ML4, Alza, Palo Alto, Calif.) containing vehicle (polyethylene glycol 400, 2.5 μl/hour) (Sigma, St Louis, Mo.), whereas MCT treated animals were implanted with osmotic minipumps containing either vehicle (MCT group; n=7), 2-hydroxyestradiol (Steraloids, Newport, R.I.) (10 μg/kg/hour, MCT+2HE group, n=7) or 2-methoxyestradiol (Steraloids, Newport, R.I.) (10 μg/kg/hour, MCT+2ME group, n=7). Assignment to the MCT, MCT+2HE, and MCT+2ME groups was conducted randomly.
The fixed specimens were embedded in paraffin and cut into 4-micron-thick sections for subsequent light microscopy and immunohistochemical analysis.
For the assessment of proliferation, the proliferating cell nuclear antigen (PCNA) was labeled using the primary monoclonal mouse antibody ( 1/200 dilution; Dako, Carpenteria, Calif.) and VEGF expression was measured using a rabbit polyclonal antibody ( 1/50 dilution, Lab Vision, Fremont, Calif.). A polyclonal ED1 antibody (Serotec, Raleigh, N.C.) specific for the monocyte/macrophage cytoplasmatic antigen was used to label vascular (main pulmonary artery) and pulmonary macrophages. For measurement of nonspecific staining, the primary antibody was replaced with phosphate buffered saline (PBS). Sections were washed and further developed according to the directions of the manufacturer (Dako Corporation, Carpinteria, Calif.) using the LSAB2 kit that contained a second antibody linked to […]. Immunochemical staining for PCNA and VEGF were assessed quantitatively with a SAMBA 4000 image analyzer (Image Products International, Chantilly, Va.) using specialized computer software designed for immunostaining analysis (Immuno-Analysis, version 4.1, Microsoft, Richmond, Wash.). The software set density threshold values by averaging several fields on the negative control tissues in which the primary antibody was replaced with PBS. Background subtraction was then performed on every tissue. Ten high power fields (×400) were assessed for staining density, wall thickness or positively marked cells for ED-1. The results for PCNA and VEGF are reported as the labeling index, which represents the percentage of the total examined area that stained positively. Staining intensity of positive areas was also assessed (mean optical density), and a mean quick score was then calculated (mean optical density×labeling index). The inflammatory response data are expressed as the total number of ED1+ cells per ten high power fields
Statistical analyses were performed using the Number Cruncher Statistical software program (Kaysville, Utah). Group comparisons were performed by a one-factor analysis of variance (1-F ANOVA), followed by post-hoc comparison using the Fisher's LSD test. All data are presented as mean ±S.E.M.

[2] = test system: monocrotaline-induced pulmonary hypertension; assay: Monocrotaline-induced pulmonary hypertension in rats: organ weights and hemodynamics (central venous pressure); details: MCT 60 mg/kg s.c., 10 μg/kg/hour by osmotic minipump, 21 days; for adverse consequences associated with monocrotaline treatment (pulmonary hypertension, increased lung weight, cardiac hypertrophy, right ventricular hypertrophy): FIGS. 1-4
Protocol: as §1, §2
After 21 days animals were weighed, anesthetized with pentobarbital (Sigma, St Louis, Mo.) (50 mg/kg) intraperitoneally, and instrumented for measurements of blood pressure, heart rate and central venous pressure. A PE-50 catheter was inserted into the right jugular vein and advanced approximately one inch and connected to a low-pressure analyzer (LPA, Micro-Med., Inc., Louisville Ky.) for continuous measurements of central venous pressure. […]
Animals were killed by an overdose of anesthetic, and the heart and lungs were removed and weighed. […] Both ventricles were weighed and the right ventricle to left ventricle plus septum ratio was calculated. […]

[3] = test system: vascular endothelial growth factor (VEGF) expression; assay: VEGF expression (immunohistochemistry) in lungs of monocrotaline-treated rats; details: MCT rats, 10 μg/kg/hour, 21 days, mean ±S.E.M., Control 34.2±2.2, MCT 42.8±2.6, p=0.482
Protocol: as §1
Animals were randomly assigned to receive subcutaneously saline (1 ml/kg, n=6) or monocrotaline (Sigma, St Louis, Mo.) (MCT, 60 mg/kg subcutaneously) (n=21). […]
For the assessment of proliferation, the proliferating cell nuclear antigen (PCNA) was labeled using the primary monoclonal mouse antibody ( 1/200 dilution; Dako, Carpenteria, Calif.) and VEGF expression was measured using a rabbit polyclonal antibody ( 1/50 dilution, Lab Vision, Fremont, Calif.). […] Immunochemical staining for PCNA and VEGF were assessed quantitatively with a SAMBA 4000 image analyzer (Image Products International, Chantilly, Va.) using specialized computer software designed for immunostaining analysis (Immuno-Analysis, version 4.1, Microsoft, Richmond, Wash.). […] Ten high power fields (×400) were assessed for staining density, wall thickness or positively marked cells for ED-1. […]

[4] = test system: small size pulmonary arteries; assay: Vascular remodeling: wall/media thickness of small size pulmonary arteries (smooth muscle alpha-actin staining) in monocrotaline-treated rats; details: vs MCT group (wall thickness increased by 87% vs control); 10 μg/kg/hour, 21 days; p<0.001; FIG. 9
Protocol: as §1
Animals were randomly assigned to receive subcutaneously saline (1 ml/kg, n=6) or monocrotaline (Sigma, St Louis, Mo.) (MCT, 60 mg/kg subcutaneously) (n=21). Monocrotaline is an agent known to induce pulmonary hypertension. […]
For assessment of vascular remodeling, vascular smooth muscle cells in pulmonary arteries were stained with smooth muscle alpha-actin Ab-1 mouse monoclonal antibody ( 1/100 dilution, Lab Vision, Fremont, Calif.). The wall and media thickness were measured in small size pulmonary arteries (50–200 microns) using commercial imaging software. Only vessels with an approximately circular profile were analyzed. […]

SMILES | inhibition of proliferative response (PCNA staining) in the lungs [1] [%] | inhibition of proliferative response (PCNA staining) in the right ventricle [1] [%] | inhibition of proliferative response (PCNA staining) in the main pulmonary artery [1] [%] | adverse consequences associated with monocrotaline treatment (pulmonary hypertension, increased lung weight, cardiac hypertrophy, right ventricular hypertrophy) [2] | VEGF labeling index (percent of the lung tissue stained positive for VEGF) [3] [%] | attenuation of MCT-induced hypertrophy of the media (wall thickness, small size pulmonary arteries) [4] [%] | central venous pressure ([2]; FIG. 5)
C[C@]12CC[C@@H]3c4cc(O)c(O)cc4CC[C@H]3[C@@H]1CC[C@@H]2O [2HE, estra-1,3,5 (10)-triene-2,3,17-triol (17β)] | −60 | −81 | −83 | did not demonstrate the same level of adverse consequences | 37.6±3.3 | −50 | 
COc1cc2c(cc1O)CC[C@@H]1[C@@H]2CC[C@]2(C)[C@@H](O)CC[C@@H]12 [2ME, estra-1,3,5 (10)-triene-2-methoxy-3, 17-diol (17β)] | −70 | −77 | −94 | did not demonstrate the same level of adverse consequences | 37.6±3.9 | −40 | especially effective at reducing central venous pressure
